From patent US20110301170A1, “Inhibitors of JNK” (priority 2010, published 2011)
Counter-ions that a name gives are not always drawn.

Columns and labels:
JNK = system: T1, JNK; assay: JNK Assay in vitro (phosphorylation of GST-ATF2 with [γ-33P] ATP); format: biochemical, Human; conditions: IC50 affinity values; JNK isoform (JNK1α1, JNK2α2 or JNK3) not stated; Km concentrations of ATP and substrate; 30° C. for 30 min
T1 construct: Human JNK2α2 assay contains 1 nM enzyme; Human JNK1α1 assay contains 2 nM enzyme
Experimental: JNK activity was measured by phosphorylation of GST-ATF2 (19-96) with [-^33P] ATP. […] Human JNK2α2 assay contains 1 nM enzyme, 1 μM ATF2, 8 μM ATP with 1 uCi [γ-^33P] ATP. Human JNK1α1 assay contains 2 nM enzyme, 1 μM ATF2, 6 μM ATP with 1 μCi [γ-^33P] ATP. Human JNK3 (Upstate Biotech #14-501M) assay contains 2 nM enzyme, 1 μM ATF2, 4 μM ATP with 1 μCi [γ-^33P] ATP. The enzyme assay was carried out in the presence or absence of several compound concentrations. JNK and compound were pre-incubated for 10 min., followed by initiation of the enzymatic reaction by adding ATP and the substrate. The reaction mixture was incubated at 30° C. for 30 min. At the end of incubation, the reaction was terminated by transferring 25 μl of the reaction mixture to 150 μl of 10% glutathione Sepharose® slurry (Amersham #27-4574-01) containing 135 mM EDTA. The reaction product was captured on the affinity resin, and washed on a filtration plate (Millipore, MABVNOB50) with phosphate buffered saline for six times to remove free radionucleotide. The incorporation of ^33P into ATF2 was quantified on a microplate scintillation counter (Packard Topcount). Compound inhibition potency on JNK was measured by IC50 value generated from ten concentration inhibition curves fitted into the 3-parameter model: % inhibition=Maximum/(1+(IC50/[Inhibitor])^slope). Data were analyzed on Microsoft Excel for parameter estimation.

| melting point | IC50 (JNK) | SMILES |
| --- | --- | --- |
| 190 to 195 °C | – | Cc1nnc2n1CCN(C(=O)[C@H]1CC[C@H](Nc3nccc(-n4nnc5c(OC(F)F)cccc54)n3)CC1)C2 (as salt: HCl) [Compound 45, {4-[4-(4-Difluoromethoxy-benzotriazol-1-yl)-pyrimidin-2-ylamino]-cyclohexyl}-(3-methyl-5,6-dihydro-8H-[1,2,4]triazolo[4,3-a]pyrazin-7-yl)-methanone] |
| 223 to 227 °C | 135 nM | O=C([C@H]1CC[C@H](Nc2nccc(-n3ncc4c(C(F)(F)F)cccc43)n2)CC1)N1CCn2cnnc2C1 [Compound 29, (5,6-Dihydro-8H-[1,2,4]triazolo[4,3-a]pyrazin-7-yl)-{4-[4-(4-trifluoromethyl-indazol-1-yl)-pyrimidin-2-ylamino]-cyclohexyl}-methanone] |
| 258 to 260 °C | 165 nM | Cc1nnc2n1CCN(C(=O)[C@H]1CC[C@H](Nc3nccc(-n4ncc5c(C(F)(F)F)cccc54)n3)CC1)C2 [Compound 30, (3-Methyl-5,6-dihydro-8H-[1,2,4]triazolo[4,3-a]pyrazin-7-yl)-{4-[4-(4-trifluoromethyl-indazol-1-yl)-pyrimidin-2-ylamino]-cyclohexyl}-methanone] |
